From patent publication US9993002B2, “1,2,3-thiadiazol-5yl-urea derivatives, use thereof for regulating plant senescence and preparations containing these derivatives” (USTAV EXPERIMENTALNI BOTANIKY AV CR, V.V.I., priority 2014, dated 2018)
Read-outs that look alike come from different tables or passages of the source.

Columns and labels:
[1] = test system: detached leaf segments of Triticum aestivum cv. Hereward; assay: Senescence bioassay on wheat leaf segments in dark conditions; conditions: Triticum aestivum, foliar, 96 h, read-out: Senescence bioassay (IC50)
Experimental: (§1) Seeds of winter wheat, Triticum aestivum cv. Hereward, were washed under running water for 24 hours and then sown on perlite soaked with Hogland's solution. They were placed in the growth chamber at 25° C. with a 16/8 h light period at 50 μmol·m^−2·s^−1. After 7 days, the first leaf was fully developed and the second leaf had started to grow. A tip section of the first leaf, approximately 4 cm long, was removed from 4 seedlings and trimmed slightly to a combined weight of 100 mg. The basal ends of the four leaf tips were placed into the 96-wells plate containing 150 μL of the tested derivative solution each. The entire plate was inserted into a plastic box lined with paper tissues soaked in distilled water to prevent leaf sections from drying out. After 96 h incubation in the dark at 25° C., the leaves were removed and chlorophyll extracted by heating at 80° C. for 10 min in 5 mL of 80% ethanol (v/v). The sample volume was then restored to 5 mL by the addition of 80% ethanol (v/v). The absorbance of the extract was recorded at 665 nm. In addition, chlorophyll extracts from fresh leaves and leaf tips incubated in deionised water were measured. The results are means of five replicates and the entire test was repeated at least twice. […] The compounds to be tested were dissolved in dimethylsulfoxide (DMSO) and the solution brought up to 10^−3 M with distilled water. […] The IC50 values were determined for standard (BAP) and novel tested compounds.

[2] = test system: detached leaf segments of Triticum aestivum cv. Hereward; assay: Senescence bioassay on wheat leaf segments in dark/light conditions; conditions: foliar, 168 h, read-out: Senescence bioassay (IC50)
Experimental: as §1
The ability of the novel compounds to retard chlorophyll degradation in detached wheat leaves was tested also in the light conditions. The experiment was performed as described in Example 7 with modifications as follows—the incubation of the leaves with the compounds was done in the dark/light conditions 8/16 (light—100 μmol·m^−2·s^−1) at 22° C. for 7 days. […] The newly prepared substituted 1,2,3-thiadiazol-5-yl urea derivatives of the invention are much stronger anti-senescent compounds in comparison to the BAP in retarding senescence under optimal (dark/light) conditions.

[3] = test system: detached leaves of Triticum aestivum cv. Hereward; assay: Membrane lipid peroxidation (MDA, TBA method) in detached wheat leaves in the dark; conditions: for MDA: four days in the dark
Experimental: A typical symptom associated with senescence as a direct consequence of increased reactive oxygen species is membrane lipid peroxidation which produces malondialdehyde (MDA). Therefore the levels of MDA, a decomposition product of lipid peroxidation, were measured in detached wheat leaves that were exposed to the prepared novel derivatives or BAP for four days in the dark as described in Example 7. MDA levels were measured using a thiobarbituric acid (TBA) method. In detail, 100 mg of fresh plant material was homogenized by high speed shaking in a ball mill (MM301, Retsch, Germany) with 1 mL of 70% methanol. The crude extract was centrifuged at 10,000×g for 5 min, and 100 μL aliquot of supernatant was vortexed with 100 μL of 0.5% (w/v) TBA containing 0.1% (w/v) trichloroacetic acid, and the resulting solution was then incubated for 30 min at 95° C. The samples were quickly cooled on ice and centrifuged for 5 min at 1000 g. The absorbance of supernatant was measured at 532 nm with background subtraction at 600 nm and the amount of MDA-TBA complex was calculated from the coefficient of absorbance 155 mM^−1 cm^−1.

[4] = test system: Arabidopsis thaliana (wild-type Col-0); assay: Root growth and lateral root formation of Arabidopsis; type: in vivo; conditions: 10 nM, two weeks after transfer
Experimental: To investigate in vivo effect of the new derivatives on the root growth and development, seeds of Arabidopsis thaliana (wild-type Col-0) were surface sterilized and sown on vertical plates on half-strength Murashige-Skoog medium (supplied with 0.1% sucrose and 6 g/L phytagel) containing 10 nM BAP or 10 nM 1,2,3-thiadiazol-5-yl-urea derivative, or 0.01% DMSO (solvent control). After vernalization (4 days in the dark, 4° C.) plates were transferred into the growth chamber (22° C., 16/8 light/dark). Two weeks after transfer, seedlings were photographed and root elongation and lateral root formation was scored using Scion image software (Scion Corp., Frederick, Md., USA). At least 40 plants were measured for each treatment.

[5] = Toxicity towards human skin fibroblasts (Calcein AM assay); type: cell-based
Experimental: Cytotoxicity of the compounds to human skin fibroblasts (BJ cell line) was determined in a standard Calceinovém AM test. Cells were maintained in plastic tissue culture flasks and grown in Dulbecco's modified Eagle's medium for cell culture (DMEM) at 37° C. in 5% CO2 and 100% humidity. Cells were placed into 96-well microtiter plates (Nunc, Denmark) and after 12 hours pre-incubation, the tested compound was added to a final concentration ranging from […]. Cells were incubated for 72 hours. At the end of incubation period Calcein AM was added in PBS to a final concentration of […]. After 1 hour of incubation fluorescence was measured at 485/538 nm (ex/em wavelength) using Fluoroskan Ascent (Labsystems, Finland). IC50 values (the concentration causing reduction of calcein AM conversion to 50%) were calculated from the curves obtained. All experiments were repeated four times with a maximum deviation of 15%. Due to the limited solubility of substances in water, all the tested compounds were dissolved in DMSO and diluted with water to a final concentration.

wheat leaves = assay: Ethylene production (defoliating activity) assay; parameters: species or system Triticum aestivum; conditions: 10 μM; for Ethylene produced: 96 h in the dark at 25° C., control 270 (±15)
Experimental: We investigated the effect of the compounds of the invention on ethylene production in wheat leaves. The leaves were obtained as described in Example 8, placed in 5 mL glass vials and immersed at 10 μM solutions of tested compounds of the invention or TDZ. Distilled water was used as a control treatment. After 96 h incubation in the dark at 25° C., 1 mL of air was taken from the vials and content of ethylene in it was determined using gas chromatography with the flame ionization detector (GC-FID) method described by Fišerová et al. (Fišerová H, Kula E, Klemš M, Reinöhl V (2001) Phytohormones as indicators of the degree of damage in birch (Betula pendula). Biológia 56: 405-409).

[6] = dark, 25° C., chlorophyll absorbance 665 nm
[7] = dark/light 8/16, 22° C., 7 days

| SMILES | IC50 [1, 6] | IC50 [2, 7] | level of membrane lipid peroxidation during dark senescence reduced to ([3]; compared to untreated control) | MDA [3] | Lateral root number [4] | Primary root lenght [4] | CC50 at 72 h [5] | Ethylene produced (wheat leaves) | elevation of ethylene production compared to untreated control (wheat leaves; 96 h) | IC50 [1] | IC50 [2] | CC50 at 72 h ([5]; BJ cell line, 72 hours, read-out: not toxic up to the highest tested concentration (Calcein AM IC50)) |
| --- | --- | --- | --- | --- | --- | --- | --- | --- | --- | --- | --- | --- |
| COCCNC(=O)Nc1cnns1 [Compound 6, 1-(2-methoxy-ethyl)-3-[1,2,3]thiadiazol-5-yl-urea] | 950 nM | 30 nM | 44.6% | 9.6 (±0.7) nmol/g FW | 17 (±9) | 48 (±15) mm | > 100000 nM | 275 (±14) nL/g FW | – | – | – | – |
| O=C(NCc1ccco1)Nc1cnns1 [Compound 84, N-furfuryl-N′-1,2,3-thiadiazol-5-yl-urea] | 1200 nM | 30 nM | – | 12.7 (±1.1) nmol/g FW | 13 (±6) | 30 (±6) mm | > 100000 nM | 337 (±28) nL/g FW | 25% | – | – | – |
| O=C(NCCCl)Nc1cnns1 [Compound 65, 1-(2-Chloro-ethyl)-3-[1,2,3]thiadiazol-5-yl-urea] | – | – | – | 16.4 (±0.5) nmol/g FW | 12 (±8) | 36 (±8) mm | – | 335 (±25) nL/g FW | – | 14000 nM | 700 nM | > 100000 nM |
